According to patent US20080039362A1, “Combination drug therapy for reducing scar tissue formation” (Afmedica, Inc., priority 2006, published 2008):

Experiments:
[1] = test system: Human coronary artery endothelial cells (EC)
Protocol: Human peripheral blood monocytes were isolated by density centrifugation and magnetic separation (Miltenyi). Human platelets were purchased from the San Diego Blood Bank. Human coronary artery endothelial cells and aortic smooth muscle cells were purchased from Cambrex. Tissue culture polystyrene plates (TCPS; Falcon) with or without fibronectin coating (1 mg/ml) were used as controls.
Human coronary artery endothelial cells (EC) and aortic smooth muscle cells (SMC) were incubated on the polymers for 72 hours.

Human platelets = assay: Platelet adhesion and aggregation on surfaces; format: cell-based; conditions: 30 minutes exposure; FIG. 21
Protocol: Platelet aggregation, used as a marker of polymer hemocompatibility, was visualized using human platelets that were exposed to PEA and a fibrinogen-coated surface for 30 minutes.

Substance | toxic effects [1] | platelet adhesion and aggregation (Human platelets)
poly(ester amide) [PEA] | no toxic effects | 
fibrinogen |  | aggregated as expected
